According to ChEMBL document CHEMBL1156488, “Selective induction of chemotherapy resistance of mammary tumors in a conditional mouse model for hereditary breast cancer” (2007):
The source made the active and inactive calls. No cut-off for these calls is given here.

Assays:
[1] = system: Mus musculus; experiment: Antitumor activity in doxorubicin-sensitive Brca1 and p53 deficient mouse mammary tumor cell xenografted mouse hereditary breast cancer model at 25 mg/kg, iv; format: functional, organism-based; parameters: dose 25 mg/kg
[2] = system: Mus musculus; experiment: Antitumor activity in Brca1 and p53 deficient K14cre mouse hereditary breast cancer model at 25 mg/kg, iv; format: functional, organism-based; parameters: dose 25 mg/kg
[3] = Antitumor activity in Brca1 and p53 deficient mouse mammary tumor cell xenografted mouse hereditary breast cancer model assessed as median survival at 25 mg/kg, iv; format: functional
[4] = system: T*23; experiment: Antitumor activity in doxorubicin-resistant Brca1 and p53 deficient mouse mammary tumor T*23 cell xenografted mouse hereditary breast cancer model at 25 mg/kg, iv; format: functional, organism-based; parameters: dose 25 mg/kg
[5] = system: Mus musculus; experiment: Antitumor activity in Brca1 and p53 deficient K14cre mouse hereditary breast cancer model at 5 mg/kg, iv; format: functional, organism-based; parameters: dose 5 mg/kg
[6] = Antitumor activity in Brca1 and p53 deficient mouse mammary tumor cell xenografted mouse hereditary breast cancer model assessed as median survival at 5 mg/kg, iv; format: functional

Row | Compound | Activity [1] | Activity [2] | Survival [3] | Activity [4] | Activity [5] | Survival [6]
1 | CC(=O)O[C@@]12CO[C@@H]1C[C@H](O)[C@@]1(C)C(=O)[C@H](O)C3=C(C)[C@@H](OC(=O)[C@H](O)[C@@H](NC(=O)OC(C)(C)C)c4ccccc4)C[C@@](O)([C@@H](OC(=O)c4ccccc4)[C@H]21)C3(C)C.O.O.O [DOCETAXEL] | Active | Active | 44 days | inactive |  | 
2 | COc1cccc2c1C(=O)c1c(O)c3c(c(O)c1C2=O)C[C@@](O)(C(=O)CO)C[C@@H]3O[C@H]1C[C@H](N)[C@H](O)[C@H](C)O1 [DOXORUBICIN] |  |  |  |  | Active | 63 days
